What was measured:
Assay in all cases: Antifungal growth assay in potato dextrose broth, 24-well
Format in all cases: cell-based
Design in all cases: key: NI, no inhibition; p (partial), at least 50% inhibited
Bipolaris sorokiniana = system: Bipolaris sorokiniana
Protocol: (§1) Fungi to be tested were propagated on potato dextrose agar (PDA) plates at room temperature. Stock solutions of pseudomycins and depsipeptide were suspended in dimethylsulfoxide (DMSO) (Sigma) at 5 mg/ml and stored at −20C. Serial dilutions of compounds were done the day of the experiment. All serial dilutions were made in DMSO. […] These are noted in the raw data section.
(§2) Assays were performed in 24-well cell culture clusters (Costar 3524), with 990 ul potato dextrose broth (PDB, Difco) and 10 ul of the compound to be tested in each well. Initial concentrations tested were 50-1.56 ug/ml (final concentration of pseudomycin). Actual concentrations of pseudomycins tested were 50, 25, 12.5, 6.25, 3.12 and 1.56 ug/ml. Each well was inoculated with the appropriate fungus. Unless noted, the fungal inoculum consisted of an ˜4 mm^2 piece of PDA with fungal mycelium. The exceptions were as follows. Ustilago maydis: this fungus grows much like a yeast on PDA, and cells were scraped from the PDA stock plate, resuspended in PDB and 10 ul inoculum added to each well. Monilinia sp.: this fungal mycelium grows as a very loose sheet on top of PDA and would not adhere to agar blocks. Fungal mycelium was ground with a metal rod in 500 ul PDB and 10 ul inoculum was added to each well. Mycosphaeella fijiensis, Septoria passerinii, Septoria triticii: these fungi all grow very slowly and the results were difficult to score if a small piece of agar with fungal mycelium on it was used as an inoculum. For these fungi, the mycelium was ground with a metal rod in 500 ul PDB and 10 ul inoculum was added to each well.
(§3) Wells were scored for fungal growth at two days and five days. Some slow growing fungi were scored at later days for growth because assessment was not possible at two or five days. Growth was scored by comparison to a control consisting of fungus inoculated into 990 ul potato dextrose broth and 10 ul of DMSO (Dimethylsulfoxide). An additional control consisting of fungal inoculum in PDB only was performed to ensure that the DMSO was not inhibitory to fungal growth.
(§4) For assays that were repeated, new stock solutions were made from a second shipment of pseudomycins. Note that pseudomycin B′ and depsipeptide stock solutions were remade from first shipment materials because these were not included in the second shipment. […] Actual concentrations of pseudomycins tested were 2, 1, 0.5, 0.25, 0.125 and 0.0625 ug/ml. A-PO4 and A-FB=pseudomycin A phosphate salt and free base respectively.
(§5) Table 2: Two day results—concentration indicated is lowest level of compound (ug /ml) that results is no growth. NI, no inhibition; p (partial), at least 50% inhibited; -, not determined. If number of assays was greater than one, number of assays performed on the fungus is noted in parentheses. For several slow-growing fungi, days elapsed before observation (if different than two) are noted.
(§6) Table 3: Five day results—concentration indicated is lowest level of compound (ug /ml) that results in no growth. NI, no inhibition; p (partial), at least 50% inhibited; -, not performed on the fungus is noted in parentheses. For several slow-growing fungi, days elapsed before observation (if different than five) are noted.

Phoma chrysamthecola = conditions: five day results
Protocol: as §1, §2, §3, §4, §5, §6

Cochliobolus carbonum = system: Cochliobolus carbonum
Protocol: as §1, §2, §3, §4, §5, §6

Aphanomyces sp. = conditions: 2x assays
Protocol: as §1, §2, §3, §4, §5, §6

Fusarium avenaceum = system: Fusarium avenaceum
Protocol: as §1, §2, §3, §4, §5, §6

Stagonospora nodorum = system: Stagonospora nodorum
Protocol: as §1, §2, §3, §4, §5, §6

Fusarium solani = system: Fusarium solani
Protocol: as §1, §2, §3, §4, §5, §6

Tapesia acuformis = conditions: 2x assays
Protocol: as §1, §2, §3, §4, §5, §6

Phytophthora cinnemani = system: Phytophthora cinnemani
Protocol: as §1, §2, §3, §4, §5, §6

Fusarium culmorum = system: Fusarium culmorum
Protocol: as §1, §2, §3, §4, §5, §6

Phytophthora ultimum = system: Phytophthora ultimum
Protocol: as §1, §2, §3, §4, §5, §6

Alternaria helianthi = conditions: 2x assays
Protocol: as §1, §2, §3, §4, §5, §6

[1] = system: Pestalotiopsis microspora NE-32
Protocol: as §1, §2, §3, §4, §5, §6

Tapesia yallundae = conditions: 2x assays
Protocol: as §1, §2, §3, §4, §5, §6

Drechslera teres = system: Drechslera teres
Protocol: as §1, §2, §3, §4, §5, §6

Verticillium dahliae = conditions: 2x assays
Protocol: as §1, §2, §3, §4, §5, §6

[2] = system: Drechslera tritici-repentis
Protocol: as §1, §2, §3, §4, §5, §6

Phyllosticta maydis = system: Phyllosticta maydis
Protocol: as §1, §2, §3, §4, §5, §6

Botrytis alli = conditions: 2x assays
Protocol: as §1, §2, §3, §4, §5, §6

Row | Substance | lowest level of compound that results in no growth (Bipolaris sorokiniana; five day results) | lowest level of compound that results in no growth (Bipolaris sorokiniana; two day results) | lowest level of compound that results in no growth (Phoma chrysamthecola) | lowest level of compound that results in no growth (Cochliobolus carbonum; five day results) | lowest level of compound that results in no growth (Cochliobolus carbonum; two day results) | lowest level of compound that results in no growth (Aphanomyces sp.; five day results) | lowest level of compound that results in no growth (Aphanomyces sp.; two day results) | lowest level of compound that results in no growth (Fusarium avenaceum; five day results) | lowest level of compound that results in no growth (Fusarium avenaceum; two day results) | lowest level of compound that results in no growth (Stagonospora nodorum; five day results) | lowest level of compound that results in no growth (Stagonospora nodorum; two day results) | lowest level of compound that results in no growth (Fusarium solani; five day results) | lowest level of compound that results in no growth (Fusarium solani; two day results) | lowest level of compound that results in no growth (Tapesia acuformis; five day results) | lowest level of compound that results in no growth (Tapesia acuformis; two day results) | lowest level of compound that results in no growth (Phytophthora cinnemani; five day results) | lowest level of compound that results in no growth (Phytophthora cinnemani; two day results) | lowest level of compound that results in no growth (Fusarium culmorum; five day results) | lowest level of compound that results in no growth (Fusarium culmorum; two day results) | lowest level of compound that results in no growth (Phytophthora ultimum; five day results) | also measured
1 | Pseudomycin B | NI | NI | p at 50 | NI | NI | 50 µg/mL | p at 50 | NI | NI | NI | NI | NI | p at 50 | NI | NI | NI | NI | NI | NI | NI | lowest level of compound that results in no growth (Phytophthora ultimum; two day results): NI; lowest level of compound that results in no growth (Alternaria helianthi; five day results): 50 µg/mL; lowest level of compound that results in no growth (Alternaria helianthi; two day results): NI; lowest level of compound that results in no growth ([1]; five day results): p at 50; lowest level of compound that results in no growth ([1]; two day results): p at 50; lowest level of compound that results in no growth (Tapesia yallundae; five day results): NI; lowest level of compound that results in no growth (Tapesia yallundae; two day results): 25 µg/mL; lowest level of compound that results in no growth (Drechslera teres; five day results): NI; lowest level of compound that results in no growth (Drechslera teres; two day results): NI; lowest level of compound that results in no growth (Verticillium dahliae; five day results): p at 50; lowest level of compound that results in no growth (Verticillium dahliae; two day results): 25 µg/mL; lowest level of compound that results in no growth ([2]; five day results): p at 50; lowest level of compound that results in no growth ([2]; two day results, 2x assays): 50 µg/mL; lowest level of compound that results in no growth (Phyllosticta maydis; five day results): 50 µg/mL; lowest level of compound that results in no growth (Phyllosticta maydis; two day results): 50 µg/mL; lowest level of compound that results in no growth (Botrytis alli; five day results): NI; lowest level of compound that results in no growth (Botrytis alli; two day results): NI
2 | Pseudomycin B′ | NI | NI | p at 50 | NI | NI | NI | 25 µg/mL | NI | NI | NI | NI | NI | NI | NI | NI | NI | NI | NI | NI | NI | lowest level of compound that results in no growth (Phytophthora ultimum; two day results): NI; lowest level of compound that results in no growth (Alternaria helianthi; five day results): 25 µg/mL; lowest level of compound that results in no growth (Alternaria helianthi; two day results): 25 µg/mL; lowest level of compound that results in no growth ([1]; five day results): NI; lowest level of compound that results in no growth ([1]; two day results): NI; lowest level of compound that results in no growth (Tapesia yallundae; five day results): 50 µg/mL; lowest level of compound that results in no growth (Tapesia yallundae; two day results): 6.25 µg/mL; lowest level of compound that results in no growth (Drechslera teres; five day results): NI; lowest level of compound that results in no growth (Drechslera teres; two day results): NI; lowest level of compound that results in no growth (Verticillium dahliae; five day results): NI; lowest level of compound that results in no growth (Verticillium dahliae; two day results): NI; lowest level of compound that results in no growth ([2]; five day results): p at 50; lowest level of compound that results in no growth ([2]; two day results, 2x assays): 50 µg/mL; lowest level of compound that results in no growth (Phyllosticta maydis; five day results): NI; lowest level of compound that results in no growth (Phyllosticta maydis; two day results): p at 50; lowest level of compound that results in no growth (Botrytis alli; five day results): NI; lowest level of compound that results in no growth (Botrytis alli; two day results): NI
3 | Pseudomycin C | NI | NI | NI | NI | NI | 50 µg/mL | 25 µg/mL | NI | NI | NI | NI | NI | p at 50 | NI | NI | NI | NI | NI | NI | NI | lowest level of compound that results in no growth (Phytophthora ultimum; two day results): NI; lowest level of compound that results in no growth (Alternaria helianthi; five day results): NI; lowest level of compound that results in no growth (Alternaria helianthi; two day results): p at 50; lowest level of compound that results in no growth ([1]; five day results): NI; lowest level of compound that results in no growth ([1]; two day results): NI; lowest level of compound that results in no growth (Tapesia yallundae; five day results): NI; lowest level of compound that results in no growth (Tapesia yallundae; two day results): 25 µg/mL; lowest level of compound that results in no growth (Drechslera teres; five day results): NI; lowest level of compound that results in no growth (Drechslera teres; two day results): NI; lowest level of compound that results in no growth (Verticillium dahliae; five day results): p at 50; lowest level of compound that results in no growth (Verticillium dahliae; two day results): 25 µg/mL; lowest level of compound that results in no growth ([2]; five day results): NI; lowest level of compound that results in no growth ([2]; two day results, 2x assays): 50 µg/mL; lowest level of compound that results in no growth (Phyllosticta maydis; five day results): NI; lowest level of compound that results in no growth (Phyllosticta maydis; two day results): p at 50; lowest level of compound that results in no growth (Botrytis alli; five day results): NI; lowest level of compound that results in no growth (Botrytis alli; two day results): NI

Source: patent US7326689B2, “Pseudomycins useful against plant diseases” (Eli Lilly and Company, priority 2000, dated 2008)
